Patent publication US6740523B2 (priority 1997, dated 2004)

Legend:
[1] = tested on: σ expression in HCT116 and other CRC cell lines; test: Northern blot of σ expression following adriamycin treatment; format: cell-based, human; conditions: 0.2 ug/ml adriamycin
Procedure: (FIG. 1B) σ Expression following adriamycin treatment. Seven different CRC cell lines were treated with 0.2 ug/ml adriamycin (+) or vehicle (−) as indicated. RNA was prepared 24 hours following adriamycin treatment. Autoradiographs of Northern blots performed with σ, p21 and EF1 probes are shown. The p53 status of the respective cell lines is indicated on the top.
Northern blotting with a radiolabeled probe generated from σ cDNA was performed to confirm the SAGE results. […] Previous reports have shown that σ expression is limited to epithelial cells.
Total RNA was prepared by CsCl gradient ultracentrifugation of guanidine isothiocyanate-lysed cells as described. […].

HCT116 cells = format: cell-based, human

| SMILES | induction of σ expression ([1]; HCT116 cells, RNA 24 hours after treatment) | σ expression in other colorectal cancer cell lines ([1]; several other CRC cell lines, 24 hours) | effect on polyploidization of Ad-σ infected cells (HCT116 cells) |
| --- | --- | --- | --- |
| COc1cccc2c1C(=O)c1c(O)c3c(c(O)c1C2=O)C[C@@](O)(C(=O)CO)C[C@@H]3O[C@H]1C[C@H](N)[C@H](O)[C@H](C)O1 [adriamycin] | similarly induce σ expression | express σ at relatively high levels | – |
| CN[C@H]1CCc2cc(OC)c(OC)c(OC)c2-c2ccc(OC)c(=O)cc21 [colcemid] | – | – | did not prevent this polyploidization |
